As a reminder, the AUC(0-inf) is total exposure, with the tail of the curve extrapolated. One may read the AUC(0-t) as exposure summed from dosing to a finite time, without extrapolation to infinity. Low readings indicate low exposure, high ones high exposure. A word on the clearance: it is the volume of plasma or blood freed of the substance per unit of time. What is called half-life is how long it takes for the measured level to halve. One may read the bioavailability as the share of a dose that reaches the circulation, judged against a reference dose that is usually intravenous. Read a high bioavailability as much systemic uptake. For orientation: Cmax means the maximum level reached in the sampled fluid or tissue. The Tmax is the time from dosing to the highest level.

Consider 1 compound from US20220356170A1, “SREBP INHIBITOR COMPRISING A THIOPHENE CENTRAL RING” (Capulus Therapeutics, LLC, priority 2019, published 2022).

Structures are written as SMILES. Like-named read-outs stand apart in the source and are kept apart here.

Data set [1] can be described thus: In vivo pharmacokinetics, intravenous. The note with it: male C57 BL/6 mice, dose 2.00 mg/kg (Compound 1), 2.43 mg/kg (Compound 2); for Vd: male, C57 BL/6, mouse, iv. How it is done:
(§1) The in vivo pharmacokinetic properties of Compound 1 by both intravenous and oral administration were evaluated in male C57 BL/6 mice. The in vivo pharmacokinetic properties of Compound 2 by both intravenous and oral administration were evaluated in male C57 BL/6 mice for comparison.
(§2) Animals were housed in cages with clean bedding. Certified rodent diet was provided. Water was available ad libitum. Environmental controls for the animal room were set to maintain a temperature of 22 to 25° C., humidity of 40-70% RH, and a 12-hour light /12-hour dark cycle. Normal healthy animals certified by the attending veterinarian were selected and acclimatized for minimum three days prior to initiation of study.
(§3) Procedure for Blood Withdrawal: Mice were anesthetized using gaseous anesthesia. Blood samples were collected through a capillary, guided in retro-orbital plexus. At each time point, blood samples from 3 mice of each respective group were collected. The blood samples were collected in pre-labeled tubes. 0.2 to 0.3 mL of blood were collected from each mouse. After collection of the blood samples at each time point, the samples were stored on ice prior to centrifugation. Blood samples were centrifuged within 15 minutes to separate plasma. Centrifugations was done at 1540 rcf (5000 rpm) at 4° C. for 10 minutes. The plasma was separated and transferred to pre-labeled micro-centrifuge tubes and promptly frozen at −80±10° C. until bioanalysis was performed. Samples were identified by test item, group, animal number, and collection time point.
To evaluate pharmacokinetic properties of intravenous delivery, nine male C57 BL/6 mice were administered 2.00 mg Compound 1/kg animal weight through the tail vein. The concentration of Compound 1 in the plasma of the animals was evaluated at 0.083, 0.25, 0.5, 1, 2, 4, 8, and 24 hr by taking blood samples from the mice. Compound 2 was similarly administered for comparison.

Data set [2] can be described thus: In vivo pharmacokinetics, oral. The note with it: male C57 BL/6 mice. How it is done:
as §1, §2, §3
To evaluate pharmacokinetic properties of oral delivery, nine male C57 BL/6 mice were administered 10 mg Compound 1/kg animal weight by mouth. The concentration of Compound 1 in the plasma of the animals was evaluated at 0.25, 0.5, 1, 2, 4, 6, 8, and 24 hr by taking blood samples. Compound 2 was similarly administered for comparison.

Where [3] appears, read: mouse, plasma, oral, dose 10.00 mg/kg (Compound 1), 12.01 mg/kg (Compound 2).

In data set [1], `CC(C)(CO)c1cc(-c2csc(-c3ccc(C(=O)N4CCC(O)CC4)cc3Cl)c2)ccn1` [Compound 2, reference compound] showed an AUCExtra of 0.48%. Moreover, the Vd in data set [1] (plasma, read-out: Vd) was found to be 4.55 L/kg. Moreover, the Vd in data set [1] (plasma, read-out: Vss) was determined as 2.32 L/kg. In data set [1] (mouse, plasma), this compound displayed an AUC(0-inf) of 2820 ng·h/mL, an area under the curve AUC(0-t) of 2810 ng·h/mL, a C0 of 2670 ng/mL and a clearance of 14.3 mL/min/kg. In data set [1] (mouse, plasma), the half-life was 220 min. The MRT last in data set [1] (mouse, plasma, read-out: MRT0-last) is 2.56 h. Besides, the bioavailability in data set [2] (mouse, plasma, oral vs intravenous) amounted to 66.6%. In data set [2] (setting [3]), the AUC(0-inf) was found to be 9300 ng·h/mL, the area under the curve AUC(0-t) is 8060 ng·h/mL, the Cmax amounted to 2180 ng/mL and the Tmax worked out at 15 min. In data set [2] (setting [3]), this compound showed a half-life of 568 min. In addition, the MRT last in data set [2] (mouse, plasma, oral, dose 10.00 mg/kg (Compound 1), 12.01 mg/kg (Compound 2), read-out: MRT0-last) came to 6.61 h. In data set [2] (oral, dose 10.00 mg/kg (Compound 1), 12.01 mg/kg (Compound 2)), this compound showed an AUCExtra of 13.38%.
